Assay results from patent US7507727B2, “Substituted quinobenzoxazine analogs and methods of using thereof” (Cylene Pharmaceuticals, Inc., priority 2003, dated 2009).

Key:
[1] = tested on: c-myc quadruplex relative to pUC 18 plasmid DNA; experiment: Quadruplex/duplex competitor assay (selectivity screen); assay type: binding; conditions: ratio of the competitor IC50 values; FIG. 3
Protocol: After cooling down to room temperature, 1 mM KCl and the test compound (various concentrations) were added and the mixture incubated for 15 minutes at room temperature. The primer extension was performed by adding 10 mM KCl and Taq DNA Polymerase (2.5 U/reaction, Promega) and incubating at 70° C. for […]. The reaction was stopped by adding 1 μl of the reaction mixture to 10 μl Hi-Di Formamide mixed and 0.25 μl LIZ120 size standard. Hi-Di Formamide and LIZ120 size standard were purchased from Applied Biosystems. The method is repeated with the addition of various concentrations of competitor nucleic acids at the first step, along with the primer and template sequences. The G-quadruplex binding ligand is added at the concentration previously established to produce a 1:1 ratio of stop-product to full-length product.
Quadruplex/Duplex Competitor Assay. The selectivity of compounds for the target quadruplex sequence relative to duplex DNA may be measured using a competition assay (i.e., “selectivity screen”). […] The degree to which each competitor successfully “soaks up” drug in solution is reflected by the quantitative decrease in synthesis of the stop product. In this manner, the relative binding affinities of drug to both the target quadruplex and duplex DNA are determined. […]

p53 (total) = p53 (total) ELISA in HCT-116 cells; assay type: cell-based; conditions: 24 hr, 1-5 uM
Protocol: The protocol for this assay is described as follows. On Day 1, cells were seeded at 2×10^6 cells/10 cm dish/10 mL medium. On day two, cells were treated as follows: control=0.05% DMSO (5 μl DMSO stock/10 ml medium); 1 μM CX3543 (1 μl Stock (10 mM)/10 ml medium); 2 μM CX3543 (2 μl Stock (10 mM)/10 ml medium); 3 μM CX3543 (3 μl Stock (10 mM)/10 ml medium); 4 μM CX3543 (4 μl Stock (10 mM)/10 ml medium) and 5 μM CX3543 (5 μl Stock (10 mM)/10 ml medium).
On Day 3, cells were harvested and attached and floating cells were collected. Cells were washed twice with PBS, counted and collected at 4×10^6 cells/sample. The cell pellet was frozen at −80° C. until further use. […]
Test Procedure. […] After washing, the plate is inverted and tapped dry on absorbance tissue. […]
Wash wells with 400 μl working wash buffer four times. […] After washing, the plate is inverted and tapped try on absorbance tissue. […] After washing, the plate is inverted and tapped try on absorbance tissue. […] Read the plate at A450 nm by setting chromogen blank (=100 μl TMB+100 μl Stop soln) as blank. Read absorbance within 2 hours of assay completion.

Compound: CN1CCCC1CCNC(=O)c1cn2c3c(c(N4CCC(c5cnccn5)C4)c(F)cc3c1=O)Oc1cc3ccccc3cc1-2 (centres unmarked) [CX-3543]
- selectivity for the c-myc quadruplex relative to pUC 18 plasmid DNA [1]: approximately 400 ×
- population of the protein p53 (total) (p53 (total)): enhanced
